Measurements: US20020019365A1, “Pharmaceutical compositions of 2'-deoxy-2'-(fluoromethylene)cytidine” (priority 2000, published 2002)

How the values were obtained:
[1] = pH-rate profile for the degradation of FMdC (pH-stability profile, FIG. 1); format: physicochemical
[2] = oral administration of FMdC in a conventional tablet form, systemic uptake / bioavailability; format: in vivo; conditions: mammalian patient
Procedure: Notwithstanding these teachings in the art, a problem has been encountered when the compound is administered in an oral form.

For `Nc1ccn(C2OC(CO)[C@@H](O)/C2=C\F)c(=O)n1` (stereo partly shown) [FMdC, 2′-deoxy-2′-(fluoromethylene)cytidine], the “pH at which FMdC is most stable” value ([1]; Britton-Robinson buffer (pH 2 to pH 11) and 0.1N HCl (pH 1) at 60° C.) was ~9 pH, the “stability at a pH of about 2 or less” value ([1]; pH of about 2 or less, 60° C.) was “very unstable” and the “patient-to-patient variability of systemic uptake” value [2] was “high”. The “systemic uptake of the drug (oral bioavailability)” value [2] was “less than desirable”.
